# Reference: ChEMBL document CHEMBL3039007, “Structure-based identification of OATP1B1/3 inhibitors” (Mol Pharmacol, 2013)
# How the values were obtained:
# [1] = target: T1, Solute carrier organic anion transporter family member 1B1 (Homo sapiens, UniProt Q9Y6L6); conditions: chinese hamster, cho, 10 µM
# T1 sequence (Q9Y6L6 whole entry): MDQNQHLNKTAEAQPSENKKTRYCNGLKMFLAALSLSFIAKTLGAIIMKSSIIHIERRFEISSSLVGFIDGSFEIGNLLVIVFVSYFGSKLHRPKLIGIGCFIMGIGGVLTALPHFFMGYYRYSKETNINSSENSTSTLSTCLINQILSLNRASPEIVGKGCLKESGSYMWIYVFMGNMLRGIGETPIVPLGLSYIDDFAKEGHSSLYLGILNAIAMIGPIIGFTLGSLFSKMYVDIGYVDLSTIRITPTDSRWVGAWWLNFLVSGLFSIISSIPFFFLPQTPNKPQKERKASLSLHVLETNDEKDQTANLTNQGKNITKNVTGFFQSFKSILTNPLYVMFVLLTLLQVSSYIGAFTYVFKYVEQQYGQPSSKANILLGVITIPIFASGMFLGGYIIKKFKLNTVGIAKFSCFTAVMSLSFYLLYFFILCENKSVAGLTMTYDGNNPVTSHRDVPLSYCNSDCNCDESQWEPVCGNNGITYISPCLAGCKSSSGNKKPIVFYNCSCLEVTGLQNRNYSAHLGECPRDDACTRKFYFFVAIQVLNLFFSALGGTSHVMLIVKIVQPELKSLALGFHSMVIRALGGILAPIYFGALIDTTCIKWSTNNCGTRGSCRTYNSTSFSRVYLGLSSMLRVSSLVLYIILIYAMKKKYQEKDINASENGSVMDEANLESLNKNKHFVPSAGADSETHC
# [2] = target: T2, Solute carrier organic anion transporter family member 1B3 (Homo sapiens, UniProt Q9NPD5); conditions: chinese hamster, cho, 10 µM
# T2 sequence (Q9NPD5 whole entry): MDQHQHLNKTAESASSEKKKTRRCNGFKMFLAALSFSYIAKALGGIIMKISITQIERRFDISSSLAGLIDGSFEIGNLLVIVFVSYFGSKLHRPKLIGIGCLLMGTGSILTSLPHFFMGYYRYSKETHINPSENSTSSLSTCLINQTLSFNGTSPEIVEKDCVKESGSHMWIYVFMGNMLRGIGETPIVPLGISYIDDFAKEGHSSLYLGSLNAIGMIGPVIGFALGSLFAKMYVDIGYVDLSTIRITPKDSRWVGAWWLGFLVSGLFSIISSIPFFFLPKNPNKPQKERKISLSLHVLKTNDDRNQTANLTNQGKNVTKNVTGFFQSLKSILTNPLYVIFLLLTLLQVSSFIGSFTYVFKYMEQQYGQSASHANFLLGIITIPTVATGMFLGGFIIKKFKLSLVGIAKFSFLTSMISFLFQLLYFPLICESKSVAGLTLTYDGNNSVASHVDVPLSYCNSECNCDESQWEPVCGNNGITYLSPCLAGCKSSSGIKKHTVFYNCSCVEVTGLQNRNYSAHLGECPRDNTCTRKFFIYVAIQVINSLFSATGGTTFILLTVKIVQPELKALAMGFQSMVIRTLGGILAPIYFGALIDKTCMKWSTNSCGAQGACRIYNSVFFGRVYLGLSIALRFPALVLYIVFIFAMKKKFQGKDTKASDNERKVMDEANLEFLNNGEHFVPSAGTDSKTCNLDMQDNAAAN
Structure (SMILES),residual activity [1] [%],residual activity [2] [%]
O=C1C[C@@H](c2ccccc2)Oc2cc(O)cc(O)c21 [PINOCEMBRIN],202,97.25
CC(C)[N+](C)(CCC(C(N)=O)(c1ccccc1)c1ccccc1)C(C)C.[I-] [ISOPROPAMIDE IODIDE],83.43,91.67
NC[C@@H]1CC[C@@H](N)[C@@H](O[C@H]2[C@H](O)[C@@H](O[C@H]3O[C@H](CO)[C@@H](O)[C@H](N)[C@H]3O)[C@H](N)C[C@@H]2N)O1 [DIBEKACIN],88.15,96.4
C=C[C@@]1(C)CC(=O)[C@]2(O)[C@@]3(C)[C@@H](O)CCC(C)(C)[C@@H]3[C@H](O)[C@H](OC(C)=O)[C@@]2(C)O1 [COLFORSIN],118.8,83.25
C=C(C)[C@@H]1CC[C@]2(CO)CC[C@]3(C)[C@H](CC[C@@H]4[C@@]5(C)CC[C@H](O)C(C)(C)[C@@H]5CC[C@]43C)[C@@H]12 [BETULIN],106.3,92.43
N=C(N)NOCC[C@H](N)C(=O)O [CANAVANINE],101.6,91.69
Cc1ccc(C(=O)C(C)CN2CCCCC2)cc1.Cl (stereo not drawn) [TOLPERISONE HYDROCHLORIDE],96.3,112.7
O=C(O)c1cc(O)ccc1O [GENTISIC ACID],84.57,104
OC(Cn1cncn1)(Cn1cncn1)c1ccc(F)cc1F [FLUCONAZOLE],86.64,106.5
C=C(C)CCC[C@@H](C)CCOC(C)=O,104.4,112.9
CCNc1nc(Cl)nc(NCC)n1 [SIMAZINE],89.71,92.02
CC(C)(S)[C@@H](N)C(=O)O [PENICILLAMINE],100.4,124
CN1CCN(CC/C=C2/c3ccccc3Sc3ccc(S(=O)(=O)N(C)C)cc32)CC1 [THIOTHIXENE],72.97,115.8
COc1cc2c(cc1O)CCN[C@@H]2C [SALSOLINE],86.65,112.8
CC[N+](CC)(CC)CCOc1cccc(OCC[N+](CC)(CC)CC)c1OCC[N+](CC)(CC)CC.[I-].[I-].[I-] [GALLAMINE TRIETHIODIDE],91.38,79.25
CC(=O)Nc1ccc(S(=O)(=O)Nc2ccc([N+](=O)[O-])cc2)cc1,61.58,88.89
CC(=O)OCC(=O)[C@@]1(O)CC[C@H]2[C@@H]3CCC4=CC(=O)CC[C@]4(C)[C@@]3(F)[C@@H](O)C[C@@]21C [FLUDROCORTISONE ACETATE],36.29,71.2
C#CCCCCCCCCCCCC(O)CC(O)CO (stereo not drawn) [AVOCADYNE],96.1,124.3
C=C1C2CC[C@@]3(C)[C@H](c4ccoc4)OC(=O)C[C@]13O[C@H]1CC(=O)C(C)(C)[C@H](C(O)C(=O)OC)[C@@]21C (stereo partly drawn) [6-HYDROXYANGOLENSIC ACID METHYL ESTER],23.65,61.1
Cc1cc(=O)oc2c(O)c(O)ccc12 [4-METHYLDAPHNETIN],61.23,78.2
Cl.NCCCCC(=O)O [5-AMINOPENTANOIC ACID HYDROCHLORIDE],59.53,62.53
COC(=O)Nc1nc2ccc(C(=O)c3ccccc3)cc2[nH]1 [MEBENDAZOLE],159.5,99
CC(=O)Oc1ccc(O)cc1 [4-ACETOXYPHENOL],136.7,116.4
Cl.Oc1ccc2c3c1O[C@H]1[C@@H](O)CC[C@@]4(O)[C@@H](C2)N(CC2CCC2)CC[C@]314 [NALBUPHINE HYDROCHLORIDE],86.64,96.59
CC(C)c1c(O)ccc2c1CC[C@H]1[C@@](C)(C=O)CCC[C@]21C [TOTARAL],80.52,100.9

Structure (SMILES),residual activity [1] [%],residual activity [2] [%]
CC(C)=CCC1=C(O)C(=O)c2ccccc2C1=O [LAPACHOL],115.5,108.2
Nc1ncnc2c1ncn2[C@H]1C[C@H](O)[C@@H](CO)O1 [DEOXYADENOSINE],112.3,106.4
CC(C)NCC(O)c1ccc(O)c(O)c1.Cl (stereo not drawn) [ISOPROTERENOL HYDROCHLORIDE],105.2,88.72
CN/C(=N/CCSCc1nc[nH]c1C)NC#N [CIMETIDINE],120.2,96.42
Nc1ccc(S(=O)(=O)Nc2ccnn2-c2ccccc2)cc1 [SULFAPHENAZOLE],104.5,98.59
ClC1=C(Cl)C2(Cl)C3C4CC(C5OC45)C3C1(Cl)C2(Cl)Cl (stereo not drawn) [ENDRIN],107.3,121
COc1ccc(C(=O)CC(=O)c2ccc(C(C)(C)C)cc2)cc1 [AVOBENZONE],124,103
C=C[C@@](C)(O)CC[C@H]1C(=C)C[C@H](OC(C)=O)[C@H]2C(C)(C)CCC[C@]12C,81.97,80.26
Oc1c(I)cc(I)c2cccnc12 [IODOQUINOL],86.7,87.46
CCC(C)C(=O)c1c(O)c(C)c2oc3c(C)c(O)c(C(=O)C(C)CC)c(O)c3c2c1O (stereo not drawn) [RHODOMYRTOXIN B],8.078,37.47
CCN(CC)C(C)CN1c2ccccc2Sc2ccccc21.Cl (stereo not drawn) [ETHOPROPAZINE HYDROCHLORIDE],60.6,85.68
COc1cc(O)c(C(C)=O)c(OC)c1 [XANTHOXYLIN],128.7,104.3
COc1cc2c(cc1OC)[C@@]13CCN4CC5=CCO[C@H]6CC(=O)N2[C@H]1[C@H]6[C@H]5C[C@H]43 [BRUCINE],117.9,229.8
O=C(O)c1cc(O)c2cccc(O)c2n1 [XANTHURENATE],115.8,99.4
NC(=O)NC(=O)Cc1ccccc1 [PHENACEMIDE],93.72,104.7
Oc1ncnc2[nH]ncc12 [ALLOPURINOL],68.8,84.36
CC(=O)CC(c1ccccc1)c1c(O)c2ccccc2oc1=O (stereo not drawn) [WARFARIN],122.2,66.67
CC(=O)NO [ACETOHYDROXAMIC ACID],91.26,100.9
COc1ccc(CN(CCN(C)C)c2ncccn2)cc1.Cl [THONZYLAMINE HYDROCHLORIDE],88.59,91.98
C[C@H]1O[C@@H](O[C@H]2[C@@H](O)C[C@H](O[C@H]3[C@@H](O)C[C@H](O[C@H]4CC[C@@]5(C)[C@H](CC[C@@H]6[C@@H]5CC[C@]5(C)[C@@H](C7=CC(=O)OC7)[C@@H](O)C[C@]65O)C4)O[C@@H]3C)O[C@@H]2C)C[C@H](O)[C@@H]1O [GITOXIN],103.4,102.2
CC(=O)[C@H]1CC[C@H]2[C@@H]3CC[C@@H]4C[C@H](O)CC[C@]4(C)[C@H]3C[C@H](O)[C@]12C,97.69,117.8
"Clc1ccc(Cl)cc1 [1,4-DICHLOROBENZENE]",99.98,96.49
CC(=O)S[C@@H]1CC2=CC(=O)CC[C@]2(C)[C@H]2CC[C@@]3(C)[C@@H](CC[C@@]34CCC(=O)O4)[C@H]12 [SPIRONOLACTONE],52.45,103.5
CN[C@@H](C)[C@@H](O)c1ccccc1.Cl [PSEUDOEPHEDRINE HYDROCHLORIDE],86.1,102.7
